Measurements taken from patent US12269816B2, “Benzothiophene compound, preparation method therefor and use thereof” (SICHUAN KELUN-BIOTECH BIOPHARMACEUTICAL CO., LTD., priority 2019, dated 2025).

Tests used:
[1] = tested on: STING and its downstream proteins TBK1 and IRF3 in THP-1 cells; experiment: Western blotting of phosphorylation of STING signal pathway proteins in human THP-1 cells; assay type: cell-based; conditions: 3 hours, protein blotting, FIGS. 1-5, result in words
Description: (§1) In this experiment, the changes in the phosphorylation levels of STING and its downstream proteins TBK1 (TANK-binding kinase 1) and IRF3 (interferon regulatory factor 3) were detected by protein blotting to evaluate the agonistic effect of the test compounds on the STING signal pathway at the cellular level.
The THP-1 cells in the logarithmic phase were centrifuged, and resuspended in a cell culture solution to a density of […]. The cell suspension was inoculated into a 12-well cell culture plate (Corning) at 0.5 mL/well. The compound to be tested was diluted with a cell culture solution to 2× working solution concentration (control compounds 1 and 2: 60 μM; compounds 1 and 3: 0.6 μM, 6 μM, and 60 μM; compounds 2, 4, 6 and 8: 6 μM, 20 μM, and 60 μM). 0.5 mL of the diluted solution of the compound was added into a 12-well plate (500 μl of the culture solution containing 2% DMSO was added into the negative control well), and the plate was incubated in a cell incubator for 3 hours. After the incubation, the cells were collected by centrifugation, lysed with 60 μL cell lysis buffer (CST) for 30 minutes, and centrifuged at 12,000 rpm for 15 minutes. The supernatant was collected to determine the protein concentration, and then an appropriate amount of 5× protein loading buffer was added. The mixture was heated at 95° C. for 10 minutes to prepare a protein electrophoresis sample. Finally protein blotting was performed to detect the phosphorylation level of the corresponding protein. The primary antibodies used in the protein blotting were purchased from CST: STING (D2P2F) rabbit mAb, Phospho-STING (Ser366) rabbit mAb, Phospho-IRF3 (Ser396) (D601M) rabbit mAb, IRF3 (D83B9) rabbit mAb, TBK1/NAK (D1B4) rabbit mAb, Phospho-TBK1/NAK (Ser172) (D52C2) XP® rabbit mAb, and GAPDH (D16H11) rabbit mAb; and the secondary antibody horseradish peroxidase-conjugated goat anti-rabbit IgG (H+L) was purchased from Zsgb-bio.

[2] = tested on: STING and its downstream proteins TBK1 and IRF3 in Raw264.7 cells; experiment: Western blotting of phosphorylation of STING signal pathway proteins in mouse Raw264.7 cells; assay type: cell-based; conditions: 3 hours, protein blotting, FIGS. 6-7, result in words
Description: as §1
The Raw264.7 cells in the logarithmic phase were centrifuged, and resuspended in a cell culture solution to a density of 1.6×10^6 cells/mL. The cell suspension was inoculated into a 6-well cell culture plate (Corning) at 1 mL/well. The compound to be tested was diluted with a cell culture solution to 2× working solution concentration (control compounds 1 and 2: 60 μM; compound 8: 0.6 μM, 6 μM, and 60 μM; compounds 2, 4 and 6: 6 μM, 20 μM, and 60 μM). 1 mL of the diluted solution of the compound was added into a 6-well plate (1 mL of the culture solution containing 2% DMSO was added into the negative control well). The plate was placed in a cell incubator, and incubated for 3 hours. After the incubation, the cells were collected by centrifugation, lysed with 60 μL cell lysis buffer (CST) for 30 minutes, and centrifuged at 12000 rpm for 15 minutes. The supernatant was collected to determine the protein concentration, and then an appropriate amount of 5× protein loading buffer was added. The mixture was heated at 95° C. for 10 minutes to prepare a protein electrophoresis sample. Finally, protein blotting was performed to detect the phosphorylation level of the corresponding protein. The primary antibodies used in the protein blotting were purchased from CST: STING (D2P2F) rabbit mAb, Phospho-STING (Ser365) rabbit mAb, Phospho-IRF3 (Ser396) (D601M) rabbit mAb, IRF3 (D83B9) rabbit mAb, TBK1/NAK (D1B4) rabbit mAb, Phospho-TBK1/NAK (Ser172) (D52C2) XPV rabbit mAb, GAPDH (D16H11) rabbit mAb; and the secondary antibody horseradish peroxidase-conjugated goat anti-rabbit IgG (H+L) was purchased from Zsgb-bio.

[3] = tested on: STING-mediated interferon (IFN) signal reporter gene in THP1-Blue™ ISG cells; experiment: STING-mediated interferon (IFN) signal SEAP reporter gene assay in THP1-Blue ISG cells; assay type: cell-based, human
Description: In this experiment, the activity of the SEAP (secreted embryonic alkaline phosphatase) reporter gene regulated by the IFN regulatory factor (interferon regulatory factor) was detected in the THP1-Blue™ ISG cells (InvivoGen) to evaluate the agonistic effect of the compounds to be tested on the STING-mediated IFN signal pathway at the cellular level.
The THP1-Blue™ ISG cells (InvivoGen) in the logarithmic phase were centrifuged, and resuspended in a cell culture solution to a density of 2×10^6 cells/ml. The cell suspension was inoculated in a 96-well cell culture plate (Corning) at 50 μL/well. The mother liquor of the compound to be tested was gradiently diluted with a cell culture solution to obtain a 2× working concentration diluted solution (control compounds 1 and 2 were diluted at a 3-fold gradient: 200, 66.67, 22.22, 7.41, 2.47, 0.82, 0.27 and 0 μM; compounds 1, 2, 4, 6, 8, and 23 were diluted at a 8-fold gradient: 60, 7.5, 0.94, 0.12, 0.015, 0.0018, 0.00023 and 0 μM; and compounds 3 and 5 were diluted at a 10-fold gradient: 10, 1, 0.1, 0.01, 0.001, 0.0001, 0.00001 and 0 μM). The 2× working concentration diluted solution of the compound was added into a 96-well plate (50 μl of the culture solution containing 2% DMSO was added into the negative control well) at 50 μL/well. The culture plate was then placed in a cell incubator, and incubated for 16 h. After the cell incubation, 10 μL of the cell culture supernatant was transferred to a 96-well plate, and a QUANTI-Blue (InvivoGen) solution was added at 90 μL/well. The cells were incubated at 37° C. for 3 h. The absorbance at 620 nm (OD620nm) was read with a microplate reader.
In the table, EC50 refers to the concentration of a compound when ODM620nm value generated by stimulation of the compound reaches half of Emax; and Emax refers to the highest OD620nm value generated by stimulation of the compound.

- EC50 ([3]; Homo sapiens, 16 h incubation, SEAP reporter read at OD620nm): 457 nM
Structure (SMILES): COc1cc2cc(C(=O)CCC(=O)O)sc2cc1OCCCOc1cc2sc(C(=O)N(C)CCC(=O)O)cc2cc1OC [Compound 2, 4-(6-(3-((2-((2-carboxyethyl)(methyl)carbamoyl)-5-methoxybenzo[b]thiophen-6-yl)oxy)propoxy)-5-methoxybenzo[b]thiophen-2-yl)-4-oxobutanoic acid]
- agonistic effect on the phosphorylation levels of STING, TBK1 and IRF3 [1]: strong agonistic effects
- agonistic effect on the phosphorylation levels of STING, TBK1 and IRF3 [2]: strong agonistic effects
- Emax (OD620nm) ([3]; highest OD620nm value generated by stimulation of the compound, 16 h): 1.82 OD620nm
- agonistic effect on the STING-mediated Interferon (IFN) signal pathway ([3]; result in words): strong agonistic effects
